Laboratory results reported in ChEMBL document CHEMBL1150808, “General behavior, toxicity, and cytotoxic activity of elenoside, a lignan from Justicia hyssopifolia” (J Nat Prod, 2001).

What was measured:
NCI-H522 [1] = assay: Growth inhibition of human NCI-H522 cells; assay type: functional
[2] = Toxicity in Swiss albino mouse assessed as death after 5 days assessed after 24 hrs post treatment by Irwin test; assay type: organism-based; details: in vivo
NCI-H226 [3] = assay: Growth inhibition of human NCI-H226 cells; assay type: functional
Mus musculus [4] = species: Mus musculus; assay: Toxicity in Swiss albino mouse assessed as reduction in spontaneous activity after 60 mins by Irwin test; assay type: organism-based; details: in vivo, 1 h
Mus musculus [5] = assay: Toxicity in Swiss albino mouse assessed as loss of righting reflex at 10 mg/kg, ip after 1 hr by Lim test; assay type: organism-based; design: dose 10 mg/kg, route intraperitoneal; details: in vivo
Mus musculus [6] = species: Mus musculus; assay: Toxicity in Swiss albino mouse assessed as loss of righting reflex after 30 mins by Irwin test; assay type: organism-based; details: in vivo, 0.5 h
SF-268 [7] = assay: Growth inhibition of human SF268 cells at 100 uM; assay type: functional; details: read-out: GI
M19-MEL [8] = assay: Growth inhibition of human M19-MEL cells; assay type: functional
HCT-116 [9] = assay: Growth inhibition of human HCT116 cells; assay type: functional
MOLT-4 [10] = assay: Growth inhibition of human MOLT4 cells at 100 uM; assay type: functional; details: read-out: GI
HCC 2998 [11] = assay: Growth inhibition of human HCC2998 cells; assay type: functional
K562 [12] = assay: Growth inhibition of human K562 cells at 100 uM; assay type: functional; details: read-out: GI
Mus musculus [13] = assay: Toxicity in Swiss albino mouse assessed as loss of muscle tone at 50 mg/kg, ip after 1 hr by Lim test; assay type: organism-based, Muscle tissue; design: dose 50 mg/kg, route intraperitoneal; details: in vivo
OVCAR-3 [14] = assay: Growth inhibition of human OVCAR-3 cells at 100 uM; assay type: functional; details: read-out: GI
Mus musculus [15] = species: Mus musculus; assay: Toxicity in Swiss albino mouse assessed as loss of hypotonic gait after 30 mins by Irwin test; assay type: organism-based; details: in vivo, 0.5 h
UO-31 [16] = assay: Growth inhibition of human UO31 cells; assay type: functional
Mus musculus [17] = assay: Toxicity in Swiss albino mouse assessed as loss of spontaneous movement at 10 mg/kg, ip after 1 hr by Lim test; assay type: organism-based; design: dose 10 mg/kg, route intraperitoneal; details: in vivo
Mus musculus [18] = species: Mus musculus; assay: Toxicity in Swiss albino mouse assessed as reduction in equilibrium after 180 mins by Irwin test; assay type: organism-based; details: in vivo, 3 h
Mus musculus [19] = assay: Toxicity in Swiss albino mouse assessed as loss of muscle tone at 25 mg/kg, ip after 1 hr by Lim test; assay type: organism-based, Muscle tissue; design: dose 25 mg/kg, route intraperitoneal; details: in vivo
UACC-257 [20] = assay: Growth inhibition of human UACC257 cells; assay type: functional
SNB-75 [21] = assay: Growth inhibition of human SNB75 cells; assay type: functional
Mus musculus [22] = assay: Toxicity in Swiss albino mouse assessed as loss of spontaneous movement at 25 mg/kg, ip after 1 hr by Lim test; assay type: organism-based; design: dose 25 mg/kg, route intraperitoneal; details: in vivo
UACC-257 [23] = assay: Growth inhibition of human UACC257 cells at 100 uM; assay type: functional; details: read-out: GI
Mus musculus [24] = species: Mus musculus; assay: Toxicity in Swiss albino mouse assessed as loss of sight after 30 mins by Irwin test; assay type: organism-based; details: in vivo, 0.5 h
SK-MEL-2 [25] = assay: Growth inhibition of human SK-MEL-2 cells; assay type: functional
SNB-19 [26] = assay: Growth inhibition of human SNB19 cells at 100 uM; assay type: functional; details: read-out: GI
DMS-273 [27] = assay: Growth inhibition of human DMS273 cells at 100 uM; assay type: functional; details: read-out: GI
NCI-H23 [28] = assay: Growth inhibition of human NCI-H23 cells at 100 uM; assay type: functional; details: read-out: GI
OVCAR-3 [29] = assay: Growth inhibition of human OVCAR-3 cells; assay type: functional
M19-MEL [30] = assay: Growth inhibition of human M19-MEL cells at 100 uM; assay type: functional; details: read-out: GI
NCI-H226 [31] = assay: Growth inhibition of human NCI-H226 cells at 100 uM; assay type: functional; details: read-out: GI
SK-MEL-5 [32] = assay: Growth inhibition of human SK-MEL-5 cells; assay type: functional
Mus musculus [33] = species: Mus musculus; assay: Toxicity in Swiss albino mouse assessed as reduction in tremors by Irwin test; assay type: organism-based; details: in vivo
MOLT-4 [34] = assay: Growth inhibition of human MOLT4 cells; assay type: functional
Mus musculus [35] = assay: Toxicity in Swiss albino mouse assessed as loss of righting reflex at 50 mg/kg, ip after 1 hr by Lim test; assay type: organism-based; design: dose 50 mg/kg, route intraperitoneal; details: in vivo
SF-268 [36] = assay: Growth inhibition of human SF268 cells; assay type: functional
Mus musculus [37] = assay: Toxicity in Swiss albino mouse assessed as loss of spontaneous movement at 50 mg/kg, ip after 1 hr by Lim test; assay type: organism-based; design: dose 50 mg/kg, route intraperitoneal; details: in vivo
SK-MEL-5 [38] = assay: Growth inhibition of human SK-MEL-5 cells at 100 uM; assay type: functional; details: read-out: GI
HCT-116 [39] = assay: Growth inhibition of human HCT116 cells at 100 uM; assay type: functional; details: read-out: GI
K562 [40] = assay: Growth inhibition of human K562 cells; assay type: functional
CCRF-CEM [41] = assay: Growth inhibition of human CCRF-CEM cells; assay type: functional
HCC 2998 [42] = assay: Growth inhibition of human HCC2998 cells at 100 uM; assay type: functional; details: read-out: GI
SNB-19 [43] = assay: Growth inhibition of human SNB19 cells; assay type: functional
RPMI-8226 [44] = assay: Growth inhibition of human RPMI8226 cells; assay type: functional
KM12 [45] = assay: Growth inhibition of human KM12 cells; assay type: functional
NCI-H522 [46] = assay: Growth inhibition of human NCI-H522 cells at 100 uM; assay type: functional; details: read-out: GI
SK-MEL-2 [47] = assay: Growth inhibition of human SK-MEL-2 cells at 100 uM; assay type: functional; details: read-out: GI
Mus musculus [48] = species: Mus musculus; assay: Toxicity in Swiss albino mouse assessed as reduction in motor affective response by Irwin test; assay type: organism-based; details: in vivo
NCI-H23 [49] = assay: Growth inhibition of human NCI-H23 cells
KM12 [50] = assay: Growth inhibition of human KM12 cells at 100 uM; assay type: functional; details: read-out: GI
Mus musculus [51] = assay: Toxicity in Swiss albino mouse assessed as loss of righting reflex at 25 mg/kg, ip after 1 hr by Lim test; assay type: organism-based; design: dose 25 mg/kg, route intraperitoneal; details: in vivo
OVCAR-4 [52] = assay: Growth inhibition of human OVCAR4 cells at 100 uM; assay type: functional; details: read-out: GI
SNB-75 [53] = assay: Growth inhibition of human SNB75 cells at 100 uM; assay type: functional; details: read-out: GI
OVCAR-4 [54] = assay: Growth inhibition of human OVCAR4 cells; assay type: functional
Mus musculus [55] = assay: Toxicity in Swiss albino mouse assessed as loss of muscle tone at 10 mg/kg, ip after 1 hr by Lim test; assay type: organism-based, Muscle tissue; design: dose 10 mg/kg, route intraperitoneal; details: in vivo
DMS-273 [56] = assay: Growth inhibition of human DMS273 cells; assay type: functional
UO-31 [57] = assay: Growth inhibition of human UO31 cells at 100 uM; assay type: functional; details: read-out: GI
Mus musculus [58] = species: Mus musculus; assay: Toxicity in Swiss albino mouse assessed as involvement of autonomic nervous system; assay type: organism-based; details: in vivo
Mus musculus [59] = species: Mus musculus; assay: Toxicity in Swiss albino mouse assessed as reduction in twitches by Irwin test; assay type: organism-based; details: in vivo
Mus musculus [60] = species: Mus musculus; assay: Toxicity in Swiss albino mouse assessed as reduction in muscular tone after 180 mins by Irwin test; assay type: organism-based; details: in vivo, 3 h
Mus musculus [61] = species: Mus musculus; assay: Toxicity in Swiss albino mouse assessed as reduction in sensory-motor response by Irwin test; assay type: organism-based; details: in vivo
CCRF-CEM [62] = assay: Growth inhibition of human CCRF-CEM cells at 100 uM; assay type: functional; details: read-out: GI
RPMI-8226 [63] = assay: Growth inhibition of human RPMI8226 cells at 100 uM; assay type: functional; details: read-out: GI
Mus musculus [64] = species: Mus musculus; assay: Toxicity in Swiss albino mouse assessed as reduction in convulsions by Irwin test; assay type: organism-based; details: in vivo

SMILES: O=C1OCc2c1cc1ccc(O)c(O[C@@H]3O[C@H](CO)[C@@H](O)[C@H](O)[C@H]3O)c1c2-c1ccc2c(c1)OCO2 [ELENOSIDE]
- GI50 (NCI-H522 [1]): 22.6 µM
- LD50 at 5 days [2]: 3.05 mg/kg
- GI50 (NCI-H226 [3]): 48.4 µM
- Activity (Mus musculus [4]): Toxic
- Activity (Mus musculus [5]): 40%
- Activity (Mus musculus [6]): Toxic
- inhibition of growth at 100 µM (SF-268 [7]): 70%
- GI50 (M19-MEL [8]): 38.2 µM
- GI50 (HCT-116 [9]): 39.7 µM
- inhibition of growth at 100 µM (MOLT-4 [10]): 88%
- GI50 (HCC 2998 [11]): 38.2 µM
- inhibition of growth at 100 µM (K562 [12]): 79%
- Activity (Mus musculus [13]): 60%
- inhibition of growth at 100 µM (OVCAR-3 [14]): 60%
- Activity (Mus musculus [15]): Toxic
- GI50 (UO-31 [16]): 27.2 µM
- Activity (Mus musculus [17]): 90%
- Activity (Mus musculus [18]): Toxic
- Activity (Mus musculus [19]): 50%
- GI50 (UACC-257 [20]): 37.9 µM
- GI50 (SNB-75 [21]): 55.2 µM
- Activity (Mus musculus [22]): 50%
- inhibition of growth at 100 µM (UACC-257 [23]): 72%
- Activity (Mus musculus [24]): Toxic
- GI50 (SK-MEL-2 [25]): 33.5 µM
- inhibition of growth at 100 µM (SNB-19 [26]): 81%
- inhibition of growth at 100 µM (DMS-273 [27]): 67%
- inhibition of growth at 100 µM (NCI-H23 [28]): 72%
- GI50 (OVCAR-3 [29]): 64.6 µM
- inhibition of growth at 100 µM (M19-MEL [30]): 81%
- inhibition of growth at 100 µM (NCI-H226 [31]): 72%
- GI50 (SK-MEL-5 [32]): 26.2 µM
- Activity (Mus musculus [33]): Non-toxic
- GI50 (MOLT-4 [34]): 34.3 µM
- Activity (Mus musculus [35]): 20%
- GI50 (SF-268 [36]): 57.1 µM
- Activity (Mus musculus [37]): 60%
- inhibition of growth at 100 µM (SK-MEL-5 [38]): 114%
- inhibition of growth at 100 µM (HCT-116 [39]): 77%
- GI50 (K562 [40]): 39.5 µM
- GI50 (CCRF-CEM [41]): 34.9 µM
- inhibition of growth at 100 µM (HCC 2998 [42]): 87%
- GI50 (SNB-19 [43]): 36 µM
- GI50 (RPMI-8226 [44]): 34.6 µM
- GI50 (KM12 [45]): 23.4 µM
- inhibition of growth at 100 µM (NCI-H522 [46]): 126%
- inhibition of growth at 100 µM (SK-MEL-2 [47]): 84%
- Activity (Mus musculus [48]): Dose-dependent effect
- GI50 (NCI-H23 [49]): 47.5 µM
- inhibition of growth at 100 µM (KM12 [50]): 77%
- Activity (Mus musculus [51]): 20%
- inhibition of growth at 100 µM (OVCAR-4 [52]): 66%
- inhibition of growth at 100 µM (SNB-75 [53]): 66%
- GI50 (OVCAR-4 [54]): 56.2 µM
- Activity (Mus musculus [55]): 90%
- GI50 (DMS-273 [56]): 47.5 µM
- inhibition of growth at 100 µM (UO-31 [57]): 80%
- Activity (Mus musculus [58]): Toxic
- Activity (Mus musculus [59]): Non-toxic
- Activity (Mus musculus [60]): Dose-dependent effect
- Activity (Mus musculus [61]): Dose-dependent effect
- inhibition of growth at 100 µM (CCRF-CEM [62]): 84%
- inhibition of growth at 100 µM (RPMI-8226 [63]): 97%
- Activity (Mus musculus [64]): Non-toxic
